Read-outs that look alike come from different tables or passages of the source.
Assays:
CMKLR1 = molecular target: T1, CMKLR1 (Homo sapiens, UniProt Q99788); test: β-arrestin recruitment assay (chemerin-mediated β-arrestin2 association with CMKLR1); format: cell-based
T1 construct: host or cells: CHO-K1 (PathHunter)
T1 sequence (Q99788 1-373): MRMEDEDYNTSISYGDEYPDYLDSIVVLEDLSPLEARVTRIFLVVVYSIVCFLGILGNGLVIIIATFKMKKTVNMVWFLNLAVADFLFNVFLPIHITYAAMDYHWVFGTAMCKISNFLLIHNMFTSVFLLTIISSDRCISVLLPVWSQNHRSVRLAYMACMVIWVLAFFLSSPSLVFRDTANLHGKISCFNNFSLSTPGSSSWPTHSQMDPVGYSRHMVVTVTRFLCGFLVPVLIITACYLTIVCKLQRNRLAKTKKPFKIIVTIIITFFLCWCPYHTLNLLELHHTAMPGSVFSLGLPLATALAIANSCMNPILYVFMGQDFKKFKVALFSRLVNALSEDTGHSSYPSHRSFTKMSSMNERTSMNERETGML
Protocol: (§1) FIG. 15A-15D. […] IC50 values were determined based on 6-point dose-response curves for each compound. (FIG. 15A) α-NETA. […] (FIG. 15A-15C) mean±SEM, n=3-18 independent experiments. […] 0.2 ml each compound (in 10% captisol) or vehicle control was administered by oral gavage beginning one day prior to psoriasis induction. Back skin thickness was measured daily and normalized to day 0. mean±SEM, n=10 mice for vehicle and α-NETA groups pooled from two independent trials; n=3 mice for (27) and (6) from one trial.
Cell culture. […] DiscoverX PathHunter® CHO-K1 CMKLR1 β-Arrestin Cells were grown in RPMI lacking phenol red (Gibco, Life Technologies), supplemented with L-glutamine, penicillin-streptomycin, sodium pyruvate, non-essential amino acid, BCS, hygromycin, and G418-sulfate.
β-arrestin recruitment assay. CMKLR1-CHO-β-Arrestin cells were seeded in 96 well plates at 1×10^5 cell/ml-100 ul/well and incubated overnight at 37° C., 5% CO2. The next day, media was removed and cells were pre-incubated in PBS with α-NETA or test compound (95 ul/well) in a 6 point dose response curve from 100 μM to 0.3 μM for 10 min at RT. (α-NETA and test compounds were reconstituted in DMSO; final DMSO concentration in each well was 0.1%). After 10 min, 5 ul of recombinant human chemerin (R&D Systems) at a final concentration of 20 nM was added to each well. Plates were incubated for 90 min at 37° C., 5% CO2. Media was then removed and 50 ul of chemiluminescent substrate (Tropix Gal-Screen, Applied Biosciences) was added. The plate was incubated for 1 hr at RT and luminescence was detected using the SpectraMax M5 plate reader (Molecular Devices). For each independent trial (single replicate dose curves), data was normalized to the maximum signal per compound tested and an IC50 value was generated using GraphPad Prism software. The average IC50 value for n independent trials (as specified in the table) is reported.

EAE in C57BL/6 mice = test: EAE induced by MOG35-55/CFA immunization; format: in vivo, mouse; settings: Table 4, 10 mg/kg daily to D 21, n = 8; for Maximum Score (Mean ± SEM): clinical score 0-5; for AUC (Mean ± SEM): mean clinical score × day
Protocol: FIG. 1A-1D. […] (FIG. 1D) The integrated clinical score over time for each animal was calculated as area under the curve (AUC).
EAE. […] CFA consisted of 5 mg/ml mTB (Mycobacterium-tuberculosis H37 Ra, BD Difco) in IFA (Incomplete Freund's Adjuvant, Sigma). MOG35-55 was reconstituted at 2 mg/ml in PBS. Mice also received 200 ng pertussis toxin (List Biological Laboratories, Inc) by i.p. injection at the time of immunization and two days later. […] For a direct comparison to α-NETA, the DMF and compound doses were also 10 mg/kg in 10% captisol. Mice were monitored daily for clinical disease and scored (0=normal/healthy, 1=limp tail, 2=hindlimb weakness, 3=hindlimb paralysis, 4=hindlimb and forelimb paralysis, 5=moribund/dead).

[1] = tested on: IMQ-induced psoriasis in mice; test: IMQ-induced psoriasis model; format: in vivo, mouse; settings: for clinical features of experimental psoriasis: oral gavage in 10% captisol, FIG. 15D
Protocol: FIG. 11A-11G. […] Representative images of the same mouse shown over time. […] Mice were treated twice daily with IMQ±dexamethasone (DEX, 200 ug/mouse) 1 h prior to IMQ treatment. […] (FIG. 11G) NK cell (CD45+DX5+CD11b-CD3-CD19-) infiltration into lesional or non-lesional adjacent skin was determined by flow cytometry (6 day timepoint) for IMQ-treated WT and chemerin KO mice. mean±SEM, n=4 mice per genotype, ***p<0.005 by 2-tailed t-test; **p<0.01 by 2-tailed t-test; *p<0.05 by 1-tailed t-test.
FIG. 13A-13D. […] Fold change with respect to day 0 measurements are shown. […] For A-C, n=3 untreated, n=5 IMQ-treated mice of each genotype, mean±SEM, *p<0.05 by 2-tailed t-test.
as §1

(hu)CMKLR1 L1.2 cells = molecular target: T2, (hu)CMKLR1 L1.2 cells (Homo sapiens, UniProt Q99788); test: Chemotaxis assay (chemerin-dependent CMKLR1+ cell migration); format: cell-based; settings: for IC50: Table 3, migration toward huChemerin, 2 h transwell, read-out: Chemotaxis IC50 μM mean ± SEM (n)
T2 construct: expressed in transfected cells; host or cells: L1.2 pre-B cell lymphoma cells
T2 sequence (Q99788 1-373): T1 sequence (Q99788 1-373)
Protocol: Cell culture. (hu)CMKLR1 transfectants (generated in L1.2 pre-B cell lymphoma cells) were grown in RPMI 1640 (Corning) supplemented with L-glutamine, penicillin-streptomycin, and 10% BCS and G418-sulfate (KSE Scientific). DiscoverX PathHunter® CHO-K1 CMKLR1 β-Arrestin Cells were grown in RPMI lacking phenol red (Gibco, Life Technologies), supplemented with L-glutamine, penicillin-streptomycin, sodium pyruvate, non-essential amino acid, BCS, hygromycin, and G418-sulfate.
Chemotaxis assay. (hu)CMKLR1 L1.2 cells at 1×10^6 cell/ml were treated with 5 mM sodium butyrate (Sigma) overnight to induce hCMKLR1 expression. The next day, cells were washed in migration media (RPMI+0.5% BSA) and resuspended at 1.5-3×10^6 cell/ml. Cells were pre-incubated at RT for 10 min with various concentrations of α-NETA or test compounds (α-NETA and test compounds were reconstituted in DMSO; final DMSO concentration in each well was 0.1%). 100 ul of cells were added to the upper chamber of a 24-well transwell plate (5 um pore size, Costar). Cells were allowed to migrate toward huChemerin ([…] in migration media, bottom chamber) for 2 h, 37° C., 5% CO2. The number of migrated cells was quantified by flow cytometry (BD LSR2), and live cells were distinguished based on FSC×SSC properties. The background for this assay was typically low with 0 cells migrating to the buffer alone. For each independent trial, data was normalized to the maximum migration per compound tested and an IC50 value was generated using GraphPad Prism software. The average IC50 value for n independent trials (as specified in the table) is reported.

[2] = Table 2, tertiary amines, chemerin 20 nM, CHO transfectants, read-out: β-arrestin IC50 μM mean ± SEM (n)
[3] = Table 3, quaternary ammonium salts, chemerin 20 nM, CHO transfectants, read-out: β-arrestin IC50 μM mean ± SEM (n)
[4] = values given in running text b220, read-out: β-arrestin2 assay IC50

SMILES | IC50 (CMKLR1; [2]) [µM] | IC50 (CMKLR1; [3]) [µM] | IC50 ((hu)CMKLR1 L1.2 cells) [µM] | other results
CN(C)CCC(=O)c1cccc2ccccc12 [Compound 3] | 18.8 | – | – | –
CCN(C)CCC(=O)c1cccc2ccccc12 [Compound 4] | 17.9 | – | – | –
CCN(CC)CCC(=O)c1cccc2ccccc12 [Compound 5] | 8.9 ± 2.4 | – | – | –
COc1ccc2ccccc2c1C(=O)CCN(C)C [Compound 6] | 6.2 ± 2.5 | – | – | Maximum Score (Mean ± SEM) (EAE in C57BL/6 mice): 2.4 ± 0.2; AUC (Mean ± SEM) (EAE in C57BL/6 mice): 25.2 ± 4.0; Day of onset (Mean ± SEM) (EAE in C57BL/6 mice): 14.5 ± 0.4; clinical features of experimental psoriasis [1]: suppressed
CN(C)CCC(=O)c1ccc2ccccc2c1 [Compound 7] | 18.5 | – | – | –
CCN(CC)CCC(=O)c1ccc2ccccc2c1 [Compound 8] | 71.3 | – | – | –
CCN(C)CCC(=O)c1ccc2ccccc2c1 [Compound 9] | 39.6 | – | – | –
CCCCN(C)CCC(=O)c1ccc2ccccc2c1 [Compound 10] | 44.5 | – | – | –
COc1ccc2cc(C(=O)CCN(C)C)ccc2c1 [Compound 11] | > 100 | – | – | –
CN(C)CCC(=O)c1ccccc1 [Compound 12] | > 100 | – | – | –
CCN(C)CCC(=O)c1ccccc1 [Compound 13] | 16.8 ± 8.3 | – | – | –
CCN(CC)CCC(=O)c1ccccc1 [Compound 14] | 77.8 | – | – | –
CCCCN(C)CCC(=O)c1ccccc1 [Compound 15] | > 100 | – | – | –
COc1ccccc1C(=O)CCN(C)C [Compound 16] | > 100 | – | – | –
COc1ccc(C(=O)CCN(C)C)cc1 [Compound 17] | > 100 | – | – | –
COc1cccc(C(=O)CCN(C)C)c1 [Compound 18] | 64 | – | – | –

SMILES | IC50 (CMKLR1; [2]) [µM] | IC50 (CMKLR1; [3]) [µM] | IC50 ((hu)CMKLR1 L1.2 cells) [µM] | other results
COc1cccc(OC)c1C(=O)CCN(C)C [Compound 19] | 10.3 ± 4.5 | – | – | –
CN(C)CCC(=O)C1CCCCC1 [Compound 20] | > 100 | – | – | activity in β-arrestin2 assay (CMKLR1): complete loss of activity
C[N+](C)(C)CCC(=O)c1ccc2ccccc2c1 [Compound 23] | – | 2.5 ± 0.9 | 24.1 | IC50 (CMKLR1; [4]): 3.1 µM
C[N+](C)(C)CCC(=O)c1ccccc1 [Compound 24] | – | 5.6 ± 0.7 | > 100 | activity in β-arrestin2 assay (CMKLR1): showed activity; IC50 (CMKLR1; [4]): 4.3 µM; activity in chemotaxis assay ((hu)CMKLR1 L1.2 cells): did not show any activity
C[N+](C)(C)CCC(=O)C1CCCCC1 [Compound 25] | – | – | > 100 | IC50 (CMKLR1; [4]): 11.9 µM
COc1ccccc1C(=O)CC[N+](C)(C)C [Compound 26] | – | 2.9 ± 1.6 | 7.2 | activity in β-arrestin2 assay (CMKLR1): highly active; activity in chemotaxis assay ((hu)CMKLR1 L1.2 cells): highly active
COc1ccc(C(=O)CC[N+](C)(C)C)cc1 [Compound 27] | – | 1.9 ± 0.2 | 4.5 ± 1.5 | activity in β-arrestin2 assay (CMKLR1): highly active; activity in chemotaxis assay ((hu)CMKLR1 L1.2 cells): highly active; Maximum Score (Mean ± SEM) (EAE in C57BL/6 mice): 2.1 ± 0.1¶; AUC (Mean ± SEM) (EAE in C57BL/6 mice): 24.3 ± 4.2; Day of onset (Mean ± SEM) (EAE in C57BL/6 mice): 16.0 ± 0.9; clinical features of experimental psoriasis [1]: suppressed
COc1cccc(C(=O)CC[N+](C)(C)C)c1 [Compound 28] | – | 3.8 ± 1.7 | 14.6 ± 4.8 | –
COc1ccc(C(=O)CC[N+](C)(C)C)c(OC)c1 [Compound 29] | – | 4.8 ± 1.6 | 17.4 ± 2.2 | –
COc1cccc(OC)c1C(=O)CC[N+](C)(C)C.[I-] [Compound 30] | – | 2.1 ± 1.1 | 6.8 | activity in β-arrestin2 assay (CMKLR1): highly active; activity in chemotaxis assay ((hu)CMKLR1 L1.2 cells): highly active
COc1cc(OC)cc(C(=O)CC[N+](C)(C)C)c1 [Compound 31] | – | 6 ± 2.2 | > 100 | –
COc1ccc2cc(C(=O)CC[N+](C)(C)C)ccc2c1 [Compound 32] | – | 1.5 ± 0.3 | 20 ± 6.2 | –
COc1ccc2ccccc2c1C(=O)CC[N+](C)(C)C [Compound 33] | – | 0.6 ± 0.3 | 10.7 | –
C[N+](C)(C)CCS(=O)(=O)c1ccccc1.[I-] [Compound 35] | – | – | – | activity in β-arrestin2 assay (CMKLR1): inactive
C[C@@H]1C[C@H]2[C@@H]3CCC4=CC(=O)C=C[C@]4(C)[C@@]3(F)[C@@H](O)C[C@]2(C)[C@@]1(O)C(=O)CO [dexamethasone, reference compound] | – | – | – | percent inhibition of skin thickening ([1]; day 5 post-IMQ, 200 ug/mouse 1 h prior to IMQ): 62±6%

Source: US11730705B2, “Small molecule CMKLR1 antagonists in inflammatory disease” (The Board of Trustees of the Leland Stanford Junior …, priority 2019, dated 2023)
